# Columns and labels:
# [1] = system: PC-3; test: Dark toxicity in human PC-3 cells assessed as reduction in cell viability at 150 uM incubated under dark for 2 hrs by MTT assay; type: cell-based; conditions: pc-3, 2 h
# [2] = Drug uptake in human PC-3 cells at 150 uM incubated under irradiation at 405 nm by confocal laser scan fluorescence microscopy; type: ADME, cell-based; conditions: pc-3, 150 µM
# [3] = system: PC-3; test: Dark toxicity in human PC-3 cells assessed as reduction in cell viability at 300 uM incubated under dark for 2 hrs by MTT assay; type: cell-based; conditions: pc-3, 2 h
# [4] = Photodynamic cytotoxicity in human PC-3 cells assessed as reduction in cell viability under 405 nm irradiation exposure measured after 2 hrs by MTT assay; type: toxicity, cell-based
# [5] = Drug uptake in human PC-3 cells at 150 uM incubated under irradiation at 405 nm in presence of cytochalasin B by confocal laser scan fluorescence microscopy; type: ADME, cell-based; conditions: pc-3, 150 µM
# [6] = Drug uptake in human PC-3 cells at 150 uM incubated under irradiation at 405 nm in presence of up top 25 mM glucose by confocal laser scan fluorescence microscopy; type: ADME, cell-based; conditions: pc-3, 150 µM
Drug uptake [2],Drug uptake [5],Drug uptake [6],Compound,Activity [1],Activity [3],IC50 at 2 h [4]
–,–,–,O=[N+]([O-])c1ccc(-c2ccc(SCCCO[C@@H]3O[C@H](CO)[C@@H](O)[C@H](O)[C@H]3O)cc2)cc1,Toxic,–,–
–,–,–,O=[N+]([O-])c1ccc(-c2ccc(OCCCO[C@@H]3O[C@H](CO)[C@@H](O)[C@H](O)[C@H]3O)cc2)cc1,Toxic,–,–
–,–,–,O=[N+]([O-])c1ccc(-c2ccc(OCCCS[C@@H]3O[C@H](CO)[C@@H](O)[C@H](O)[C@H]3O)cc2)cc1,Toxic,–,–
Active,–,–,O=[N+]([O-])c1ccc(-c2ccc(S[C@H]3O[C@H](CO)[C@@H](O)[C@H](O)[C@@H]3O)cc2)cc1,–,Toxic,150 µM
Active,Active,Active,O=[N+]([O-])c1ccc(-c2ccc(S[C@@H]3O[C@H](CO)[C@H](O)[C@H](O)[C@H]3O)cc2)cc1,–,Toxic,120 µM
–,–,–,O=[N+]([O-])c1ccc(-c2ccc(O[C@@H]3O[C@H](CO)[C@@H](O)[C@H](O)[C@H]3O)cc2)cc1,Non-Toxic,–,–
Active,–,–,O=[N+]([O-])c1ccc(-c2ccc(S[C@@H]3O[C@H](CO)[C@@H](O)[C@H](O)[C@H]3O)cc2)cc1,Non-Toxic,Non-Toxic,250 µM
